Assay results published in US20220276186A1, “OPTIMIZED ANALYTE DERIVATIZATION FOR SYNERGISTIC APPLICATION WITH CRYSTAL SPONGE METHOD” (MERCK PATENT GMBH, priority 2019, published 2022).

Assay: solubility of the analyte in chloroform (step i of Procedure 1, crystalline sponge method)
Assay type: physicochemical
Experimental: Procedure 1—absorption of an organic molecule into a single porous crystal. Specifically, procedure 1 describes absorption of an organic molecule into a crystalline sponge comprising [(ZnCl2)3(tpt)2.(cyclohexane)x] (tpt=1,3,5-tris(4-pyridyl)triazine. The organic molecule is first dissolved in trichloro methane (chloroform), i.e., the sample comprises the organic molecule in trichloro methane. The procedure comprises the steps: • i—1 mg of organic molecule is dissolved in 1 ml of chloroform at room temperature. (Proportionally lower quantities can be used, depending on the available amount of analyte.) • ii—A single crystal of [(ZnCl2)3(tpt)2.(cyclohexane)x] (tpt=1,3,5-tris(4-pyridyl)triazine) crystal sponge of about 100 μm diameter, which has been visually inspected under a microscope and found to be without twinning or visible cracks, is placed in a septum screw-top glass vial with conically pointed bottom, submerged in 50 μl of cyclohexane. • iii—4.5 μl of the solution obtained in step (i) (containing 4.5 μg of analyte) is added to the crystalline sponge in cyclohexane as described in step (ii). • iv—The screw-top is closed, and the septum is pierced with a medical-type syringe needle, which may be left in that position to enable slow solvent evaporation. This assembly is incubated at 50° C. for 24 or more hours. […]

| Structure (SMILES) | amount of analyte that could be dissolved in 1 ml chloroform (20° C.) | solution of analyte in chloroform that could be prepared without difficulty (Procedure 1 step i (room temperature)) [mg in 1 ml] |
| --- | --- | --- |
| O=c1c(-c2ccc(O)cc2)coc2cc(O)ccc12 [4′,7-dihydroxy isoflavone] | about 0.005 mg in 1 ml |  |
| COc1ccc(-c2coc3cc(OC)ccc3c2=O)cc1 [4′,7-dimethoxy isoflavone] |  | ≥ 1 |
